Data as given in patent US11136296B2, “Substituted N-arylethyl-2-arylquinoline-4-carboxamides and use thereof” (Bayer Aktiengesellschaft, priority 2017, dated 2021).

Key:
FP receptor = FP receptor (Homo sapiens (Human), UniProt P43088); experiment: In vitro test of inhibition of human FP receptor activity (PGF2α-induced calcium flux in FP-expressing CHEM1 cells); type: cell-based; settings: PGF2α-induced (2 nM) calcium flux in FP-expressing CHEM1 cells; some as mean values from multiple determinations
Source text: Table 1 below lists the IC50 values from this assay for individual working examples of the invention (some as mean values from multiple independent individual determinations): […]

[1] = test system: fluprostenol-induced mechanical sensitivity; experiment: Effects of FP antagonists on mechanical sensitivity (von Frey test, fluprostenol-induced mechanical allodynia); type: in vivo, mouse; settings: for 50% Paw Response Threshold, mean: Ex. 153 90 mg/kg PO, male ND4 mice; for effect on 50% Paw Response Thresholds compared to vehicle-treated animals: group treated with […] fluprostenol, oral 90 mg/kg
Method: B-24. Effects of FP Antagonists on Mechanical Sensitivity (Peripheral, Mouse)
Mechanical allodynia was examined using the von Frey test on the injected and uninjected rear paws several times after the injection.
Mechanical allodynia was measured with […] (Stölting©; Wood Dale, Ill., USA) having different stiffness (0.04; 0.07; 0.16; 0.4; 1.0. 4.0 and 8.0 g) by the up-down method (Chaplan et al., J. Neurosci. Meth. 1994, 53, 56-63). Intact male ND4 mice (30 g, 10 animals per group) were placed in individual acrylic chambers on a metal grid surface, and were allowed to get used to their environment for at least 15 minutes before the testing. Each filament was pressed with sufficient force at right angles to the underside of the paw, in order to cause slight bending against the paw, and was held for about 6 seconds or until a positive response was registered (paw quickly withdrawn). The testing was commenced with the 0.4 g filament. If the paw was not withdrawn, the next strongest stimulus was used. In the case that the paw was withdrawn, the next weakest stimulus was used. This process was repeated until up to 4 responses had been obtained after the initial change in response (no response after positive response or positive response after no response). […] The 50% paw response threshold was calculated using the following formula:
[formula] • Xf=value (in logarithmic units) of the last von Frey filament used • k=table value for the pattern of positive/negative responses (see Chaplan et al., J. Neurosci. Meth. 1994, 53, 56-63, Annex 1, page 62) • δ=average difference (in logarithmic units) between the stimuli
The mean and […] of the mean (SEM) was determined for each paw for each treatment group at each time point.
In order to assess the analgesic effect of an FP antagonist on fluprostenol-induced mechanical sensitivity, the test substance from Ex. 153 (90 mg/kg) was administered 2 hours before and 8 and 22 hours after the injection of fluprostenol. Ipsilateral and contralateral 50% paw response thresholds were examined prior to the administration of fluprostenol and 0.5, 2, 6 and 24 h after the administration.

Chain of FP receptor (P43088 whole entry): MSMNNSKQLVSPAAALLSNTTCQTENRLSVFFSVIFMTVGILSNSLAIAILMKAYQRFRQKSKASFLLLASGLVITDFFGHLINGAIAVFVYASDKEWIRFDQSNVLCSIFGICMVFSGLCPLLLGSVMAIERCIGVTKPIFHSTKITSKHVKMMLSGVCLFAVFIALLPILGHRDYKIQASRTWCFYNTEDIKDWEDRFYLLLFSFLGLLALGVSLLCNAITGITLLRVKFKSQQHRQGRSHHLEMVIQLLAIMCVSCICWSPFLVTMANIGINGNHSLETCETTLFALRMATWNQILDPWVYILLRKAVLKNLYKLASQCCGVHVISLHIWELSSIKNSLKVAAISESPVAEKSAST

Compound	IC50 (FP receptor) [nM]	further results
Cc1c(-c2ccccc2)nc2ccc(Br)cc2c1C(=O)NCC(CCC(=O)O)c1ccccc1Cl (single isomer, unassigned; (+)) [Ex. 153, (+)-5-{[(6-Bromo-3-methyl-2-phenylquinolin-4-yl)carbonyl]amino}-4-(2-chlorophenyl)pentanoic Acid]	9	50% Paw Response Threshold, mean ([1]; Group 2: fluprostenol ~[…] IPL, 0.5 h): 2.65 g; 50% Paw Response Threshold, mean ([1]; Group 2: fluprostenol ~[…] IPL, 2 h): 2.403 g; 50% Paw Response Threshold, mean ([1]; Group 2: fluprostenol ~[…] IPL, 6 h): 1.89 g; 50% Paw Response Threshold, mean ([1]; Group 2: fluprostenol ~[…] IPL, 24 h): 3.245 g; 50% Paw Response Threshold, mean ([1]; Group 2: fluprostenol ~[…] IPL, BL (baseline)): 4.421 g; 50% Paw Response Threshold, mean ([1]; Group 4: fluprostenol ~[…] IPL, 0.5 h): 0.728 g; 50% Paw Response Threshold, mean ([1]; Group 4: fluprostenol ~[…] IPL, 2 h): 0.716 g; 50% Paw Response Threshold, mean ([1]; Group 4: fluprostenol ~[…] IPL, 6 h): 1.57 g; 50% Paw Response Threshold, mean ([1]; Group 4: fluprostenol ~[…] IPL, 24 h): 1.683 g; 50% Paw Response Threshold, mean ([1]; Group 4: fluprostenol ~[…] IPL, BL (baseline)): 4.215 g; effect on 50% Paw Response Thresholds compared to vehicle-treated animals ([1]; 0.5 hours after the fluprostenol injection): increased the “50% Paw Response Thresholds” 0.5 hours after the fluprostenol injection significantly; effect on 50% Paw Response Thresholds compared to vehicle-treated animals ([1]; 24 hours after the fluprostenol injection): increased the “50% Paw Response Thresholds” 24 hours after the fluprostenol injection significantly
C#Cc1ccc2nc(-c3ccccc3)c(C)c(C(=O)NCC(CCC(=O)O)c3ccccc3Cl)c2c1 (single isomer, unassigned; (-)) [Example 219, (−)-4-(2-Chlorophenyl)-5-{[(6-ethynyl-3-methyl-2-phenylquinolin-4-yl)carbonyl]amino}pentanoic Acid]	10	–
O=C(O)CCC(CNC(=O)c1c(Cl)c(-c2ccccc2)nc2ccc(Br)cc12)c1c(F)ccc(F)c1Cl (single isomer, unassigned; (-)) [Example 222, (−)-5-{[(6-Bromo-3-chloro-2-phenylquinolin-4-yl)carbonyl]amino}-4-(2-chloro-3,6-difluorophenyl)pentanoic Acid]	0.96	–
Cc1c(-c2ccccc2)nc2ccc(Br)cc2c1C(=O)NCC(CCC(=O)O)c1c(F)cccc1C(F)(F)F (single isomer, unassigned; (-)) [Example 227, (−)-5-{[(6-Bromo-3-methyl-2-phenylquinolin-4-yl)carbonyl]amino}-4-[2-fluoro-6-(trifluoromethyl)phenyl]pentanoic Acid]	1.6	–
Cc1c(-c2ccccc2)nc2ccc(Br)cc2c1C(=O)NCC(CCC(=O)O)c1c(F)c(F)cc(F)c1F (single isomer, unassigned; (-)) [Example 229, (−)-5-{[(6-Bromo-3-methyl-2-phenylquinolin-4-yl)carbonyl]amino}-4-(2,3,5,6-tetrafluorophenyl)pentanoic Acid]	2.7	–
Cc1c(-c2ccccc2)nc2ccc(Br)cc2c1C(=O)NCC(CCC(=O)O)c1c(Cl)ccc(Cl)c1Cl (single isomer, unassigned; (-)) [Example 236, (−)-5-{[(6-Bromo-3-methyl-2-phenylquinolin-4-yl)carbonyl]amino}-4-(2,3,6-trichlorophenyl)pentanoic Acid]	2	–
Cc1c(-c2ccccc2)nc2ccc(Br)cc2c1C(=O)NCC(C)(CCCC(=O)O)c1ccccc1Cl (single isomer, unassigned; (-)) [Example 241, (−)-6-{[(6-Bromo-3-methyl-2-phenylquinolin-4-yl)carbonyl]amino}-5-(2-chlorophenyl)-5-methylhexanoic Acid]	68	–
Cc1c(-c2ccccc2)nc2ccc(Br)cc2c1C(=O)NCC(C)(CCCC(=O)O)c1ccccc1 (single isomer, unassigned; (-)) [Example 244, (−)-6-{[(6-Bromo-3-methyl-2-phenylquinolin-4-yl)carbonyl]amino}-5-methyl-5-phenylhexanoic Acid]	20	–
COc1ccccc1C(CNC(=O)c1c(C)c(-c2ccccc2)nc2ccc(Br)cc12)N1CCC(C(=O)O)C1 (stereo not drawn) [Example 246, 1-[2-{[(6-Bromo-3-methyl-2-phenylquinolin-4-yl)carbonyl]amino}-1-(2-methoxyphenyl)ethyl]pyrrolidine-3-carboxylic Acid]	94	–
COc1ccccc1[C@H](CNC(=O)c1c(C)c(-c2ccccc2)nc2ccc(Br)cc12)N1CCC(C(=O)O)C1 (stereo partly drawn) [compound 247]	7.2	–
COc1ccccc1[C@@H](CNC(=O)c1c(C)c(-c2ccccc2)nc2ccc(Br)cc12)N1CCC(C(=O)O)C1 (stereo partly drawn) [compound 248]	13	–
Cc1c(-c2ccccc2)nc2ccc(Br)cc2c1C(=O)NCC(CCC(=O)O)c1ccccc1F (stereo not drawn) [compound 252]	14	–
